Drawing on PubChem BioAssay (NCI), this text covers TGI for 24 compounds.

Among the test systems are CCRF-CEM leukemia; SK-MEL-5 melanoma; HOP-62 NSCLC; IGROV1 ovarian; SF-268 CNS.
What all share (test): NCI anticancer screen, dose series, 48 h

Molecules are shown by their SMILES.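 Method: 48-hour compound exposure of cells in 96-well plates, five concentrations, linear interpolation of endpoints. TGI: concentration producing complete growth inhibition.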

Consider `[N-]=[NH+]CC(=O)OC(COCc1ccccc1)COCc1ccccc1`, for which the TGI in the assay with CCRF-CEM leukemia, in the assay with SK-MEL-5 melanoma, in the assay with HOP-62 NSCLC, in the assay with IGROV1 ovarian and with SF-268 CNS was more than 100 µM in each case.

For `COc1cc(C2C3=C(COC3=O)Oc3cc4c(cc32)OCO4)ccc1OC(C)=O` (stereo not given), the TGI in the assay with CCRF-CEM leukemia is more than 49.6 µM; with SK-MEL-5 melanoma, more than 100 µM; in the assay with HOP-62 NSCLC, more than 100 µM; with SF-268 CNS, more than 59.5 µM.

Turning to `CCSC1=N/C(=C\c2ccco2)C(Cl)=N1`, the TGI in the assay with CCRF-CEM leukemia, with SK-MEL-5 melanoma, with HOP-62 NSCLC, in the assay on IGROV1 ovarian and in the assay on SF-268 CNS was more than 100 µM throughout.

In the case of `COc1cccc2c(Nc3ccc(S(=O)(=O)NC(C)=O)cc3)c3ccc([N+](=O)[O-])cc3nc12`, the TGI in the assay with CCRF-CEM leukemia was more than 100 µM; with SK-MEL-5 melanoma, more than 78.3 µM; in the assay on HOP-62 NSCLC, more than 100 µM; in the assay on IGROV1 ovarian, more than 86.7 µM; with SF-268 CNS, more than 93.7 µM.

Turning to `CCOC(=O)C(NC(=O)CC(C)C)(Nc1ccc(S(=O)(=O)Nc2nc(C)cc(C)n2)cc1)C(F)(F)F` (stereo not given), the TGI in the assay on CCRF-CEM leukemia, with SK-MEL-5 melanoma, in the assay on HOP-62 NSCLC, in the assay with IGROV1 ovarian and in the assay on SF-268 CNS was more than 100 µM in each case.

For the compound `O=c1[nH]nc(Cc2ccccc2)n1/N=C/c1ccccc1Cl`, the TGI in the assay on SK-MEL-5 melanoma, in the assay with IGROV1 ovarian and in the assay on SF-268 CNS was more than 100 µM in each case.

As to `CCOC(=O)/C(C#N)=C1\c2c([nH]c(=S)[nH]c2=O)Oc2ccc3ccccc3c21`, the TGI in the assay with CCRF-CEM leukemia is 4.26 µM; in the assay on SK-MEL-5 melanoma, 41.4 µM; with HOP-62 NSCLC it was more than 100 µM; in the assay with IGROV1 ovarian it was more than 100 µM; in the assay on SF-268 CNS, more than 100 µM.

With `CCN(CC)C(=S)SNCc1ccc(S(N)(=O)=O)cc1`, the TGI with SK-MEL-5 melanoma is 36.2 µM; with HOP-62 NSCLC, 30.5 µM; in the assay with IGROV1 ovarian it was 26.6 µM; with SF-268 CNS, 26.7 µM.

For the compound `O=C(O)c1ccc2c(c1)CC1(C2)Cc2ccccc2C1=O` (stereo not given), the TGI in the assay on CCRF-CEM leukemia, in the assay on SK-MEL-5 melanoma, in the assay on HOP-62 NSCLC, in the assay with IGROV1 ovarian and with SF-268 CNS was more than 100 µM in each case.

In the case of `Fc1ccccc1-c1nn2c(C34CC5CC(CC(C5)C3)C4)nnc2s1`, the TGI in the assay with CCRF-CEM leukemia, with SK-MEL-5 melanoma, in the assay on HOP-62 NSCLC, in the assay with IGROV1 ovarian and with SF-268 CNS was more than 100 µM each time.

Take `Cc1ccc(S(=O)(=O)NC2C(=O)c3ccccc3C(=O)C2n2cnc3ccccc32)cc1` (stereo not given): the TGI in the assay on CCRF-CEM leukemia is more than 100 µM; with SK-MEL-5 melanoma, 42.6 µM; in the assay on HOP-62 NSCLC it was more than 100 µM; with IGROV1 ovarian, 75 µM; in the assay with SF-268 CNS, more than 100 µM.

With `Nc1cn(Cc2ccccc2)c2nc(/C=C3/C=CC=CC3=O)c(O)n12`, the TGI with CCRF-CEM leukemia, in the assay with SK-MEL-5 melanoma, in the assay with HOP-62 NSCLC, with IGROV1 ovarian and in the assay on SF-268 CNS was more than 100 µM in each case.

Turning to `CCOP(=O)(OCC)c1ccc(=O)[nH]c1-c1cccs1`, the TGI in the assay on SK-MEL-5 melanoma, in the assay on HOP-62 NSCLC, in the assay on IGROV1 ovarian and in the assay on SF-268 CNS was more than 100 µM in each case.

As to `O=C1CCC2CCC1C2` (stereo not given), the TGI with CCRF-CEM leukemia, with SK-MEL-5 melanoma, in the assay with HOP-62 NSCLC and in the assay with SF-268 CNS was more than 100 µM in each case.

Turning to `NC(N)=N/N=C/c1c(-c2ccc([N+](=O)[O-])cc2)nc2n1CCS2`, the TGI with CCRF-CEM leukemia worked out at 11.8 µM; in the assay on SK-MEL-5 melanoma it was 32 µM; with HOP-62 NSCLC, 61.5 µM; with IGROV1 ovarian, 38.6 µM; in the assay with SF-268 CNS, 25.4 µM.

As to `COc1cc(NP(=O)(Oc2ccccc2)Oc2ccccc2)ccc1Nc1c2ccccc2nc2c1[nH]c1ccccc12`, the TGI in the assay on SK-MEL-5 melanoma is 10.3 µM; in the assay with HOP-62 NSCLC it was 2.8 µM; in the assay with IGROV1 ovarian it was more than 100 µM; with SF-268 CNS, more than 100 µM.

`c1ccc(Nc2nnc(Cn3ccc4ccccc43)s2)cc1`: the TGI in the assay with CCRF-CEM leukemia, with SK-MEL-5 melanoma, with HOP-62 NSCLC, with IGROV1 ovarian and in the assay on SF-268 CNS was more than 100 µM each time.

As for `CC(=O)N(CCc1ccccc1)C(C#N)c1ccc(OCCCCCCCCCCOc2ccc(C(C#N)N(CCc3ccccc3)C(C)=O)cc2)cc1` (stereo not given), the TGI with CCRF-CEM leukemia is more than 100 µM; with SK-MEL-5 melanoma it was more than 100 µM; in the assay with IGROV1 ovarian, more than 100 µM; with SF-268 CNS, 59.7 µM.

For the compound `CC(=O)OC1COC(n2c(-c3ccc(Cl)cc3)cc(-c3ccccc3)c(C#N)c2=S)C(OC(C)=O)C1OC(C)=O` (stereo not given), the TGI is more than 86.1 µM in the assay with CCRF-CEM leukemia; more than 42.2 µM in the assay on SK-MEL-5 melanoma; 28.4 µM in the assay on HOP-62 NSCLC; more than 31.6 µM with IGROV1 ovarian; more than 39.3 µM in the assay on SF-268 CNS.

For `CC(=O)OCC1OC(N2C(C)=C(C(C)=O)C(c3ccco3)C(C#N)=C2S)C(OC(C)=O)C(OC(C)=O)C1OC(C)=O` (stereo not given), the TGI in the assay on CCRF-CEM leukemia, in the assay on SK-MEL-5 melanoma, in the assay on HOP-62 NSCLC, in the assay on IGROV1 ovarian and in the assay on SF-268 CNS was more than 100 µM in each case.

For `N#Cc1c(Cl)c2ccccc2n2c1nc1ccccc12`, the TGI is 47.2 µM in the assay on CCRF-CEM leukemia, more than 100 µM in the assay on HOP-62 NSCLC, 38.7 µM with IGROV1 ovarian and 83.7 µM in the assay on SF-268 CNS.

With `O=C1c2ccccc2-c2ccc(N=Nc3c(O)ccc4ccccc34)cc21`, the TGI with CCRF-CEM leukemia was 35 µM; in the assay on SK-MEL-5 melanoma, more than 100 µM; in the assay on HOP-62 NSCLC, more than 100 µM; in the assay with IGROV1 ovarian it was more than 100 µM; in the assay on SF-268 CNS, more than 100 µM.

As for `COc1ccc(C2=C(N)c3c(OC)cccc3C2=O)cc1`, the TGI in the assay with CCRF-CEM leukemia, with HOP-62 NSCLC, in the assay with IGROV1 ovarian and in the assay on SF-268 CNS was more than 100 µM in each case.

Consider `CC1=NN(c2nc(N)nc(CSCc3nc(N)nc(N(C)C)n3)n2)C(C)(C)C1`, for which the TGI in the assay on CCRF-CEM leukemia, in the assay on SK-MEL-5 melanoma, with HOP-62 NSCLC, in the assay with IGROV1 ovarian and with SF-268 CNS was more than 100 µM each time.
